Assay results reported in US9340532B2, “Methods and compositions for inhibiting CNKSR1” (PHUSIS THERAPEUTICS, INC., priority 2012, dated 2016).
Values joined by “and” are separate entries in the source; they are usually repeats but may differ in a detail not shown here. Equal entries are not always repeated. Where two headings read alike, the source gives them in different places.

Tests used:
PH-domain of CNKSR1 = biological target: T1, PH-domain of CNKSR1 (Homo sapiens, UniProt Q969H4); assay: SPR binding (Biacore 2000) to CNKSR1 PH-domain, initial hits; conditions: Table 5
T1 sequence (Q969H4 403-502 limits assumed): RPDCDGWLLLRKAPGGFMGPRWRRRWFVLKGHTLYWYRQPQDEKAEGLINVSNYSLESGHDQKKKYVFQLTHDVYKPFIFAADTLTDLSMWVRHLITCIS
Description: In embodiments, a homology model for the PH-domain of CNSKR1 based on known PH-domain crystal structures can be developed. The docking program PHuDock® can be used to identify potential inhibitors of CNKSR1. […] The binding of the compounds to the expressed PH-domain of CNKSR1 (KDobs) can be measured by surface plasmon resonance (SPR) spectroscopy.
(§1) Other docking was performed using modeling algorithms with state-of-the-art commercial drug discovery software (Schrodinger suite). […] Additionally, ligand-based approaches provided an alternative to structure based drug discovery. Ligand-based virtual screening methodologies can take into account shape and electrostatics (like ROCS) and the pharmacophoric features (acceptor, donor, hydrophobic, aromatic, etc.) of its functional groups. […] SPR interaction analyses of all other compounds was undertaken using a Biacore T100 with Control and Evaluation software kit.

[1] = system: mut-KRAS NSCLC cell lines; assay: Screening against NSCLC cell line panel, mut-KRAS lines; format: cell-based
Description: (§2) The isogenic KRAS lines harboring G12D, G12C, and G12V were obtained from Horizon Discovery labs on a one year lease. These cells were cultured in McCoys media with 10% FBS to 80% confluency. Cells were then released from flasks via trypsinization and plated into 96-well plates at an initial density range of 2000 cells per well. Cells were allowed 24 hours to attach, and then the agents were added to the culture media at a range of concentrations from 0-100 μM. Cells were incubated for 72 hours with the drugs, and then viability was assessed using an MTS viability assay. Cells were exposed to MTS reagent (Promega) dissolved in PBS (Hyclone) at a concentration of 200 μL reagent/mL media for 2 hours. Absorbance was then read at 490 nm, and viability was expressed as a percentage normalized between the negative control (no cells plated) and the condition of cells with no drug added (100% viability) normalized as the upper limit of viability.
(§3) Our panel of 30 cell lines and an extensive characterization were obtained from Dr. John Minna (UTSW). All cell lines were cultured in RPMI 1640 with 10% FBS. Cells were treated with concentrations of agents at concentrations 0.01 to 50 μM and evaluated as described above. IC50's were determined using Excelfit.

[2] = system: H1373 (KRAS mutant cell line); assay: Proliferation Assay H1373; format: cell-based; conditions: Homo sapiens, NCI-H1373, N = 2 experiments
Description: as §2, §3

[3] = system: H1975 (KRAS wildtype cell line); assay: Proliferation Assay H1975; format: cell-based; conditions: Homo sapiens, NCI-H1975, n = 1
Description: as §2, §3

CNK1 PH-domain (CNKSR1) = biological target: T2, CNK1 PH-domain (CNKSR1) (Homo sapiens, UniProt Q969H4); assay: SPR binding assay (Biacore T100), CNK1 PH-domain; conditions: for Surface Plasmon Resonance CNKSR1 binding (RU max) / Surface Plasmon Resonance CNKSR1 stability (RU max post-injection): date 12 09 13
T2 construct: The PH-domain His-fusion proteins (CNK1 and AKT1) were expressed and immobilized on a NTA chip; made in house
T2 sequence (Q969H4 403-502 limits assumed): T1 sequence (Q969H4 403-502 limits assumed)
Description: (§4) All interaction analyses were done with a Biacore T100 Control Software v3.2, and BIAevaluation v4.1 analysis software (Biacore). The PH-domain His-fusion proteins (CNK1 and AKT1) were expressed and immobilized on a NTA chip to a level of 10,000 response units or less. Small molecule analytes at concentrations ranging from 50 μM to 0.010 μM were injected at a high flow rate (30 μL/min) DMSO concentrations in all samples and running buffer were 1-5% (v/v).
as §1

AKT1 PH-domain = biological target: T3, AKT1 PH-domain (Homo sapiens, UniProt P31749); assay: SPR binding assay (Biacore T100), AKT1 PH-domain; conditions: read-out: AKT KD
T3 construct: The PH-domain His-fusion proteins (CNK1 and AKT1) were expressed and immobilized on a NTA chip; made in house
Description: as §4
(§5) A commercially available docking package, GOLD (GOLD [3.2], CCDC: Cambridge, UK, 2007) was used to evaluate the docking of compounds 1-7 into the binding pocket, see e.g. Table 5. Other docking was performed using modeling algorithms with state-of-the-art commercial drug discovery software (Schrodinger suite). GLIDE was chosen as the docking algorithm used to select and optimize compounds, providing a GlideScore as a rough estimate of binding affinity that was used to rank and select the best compounds. Additionally, ligand-based approaches provided an alternative to structure based drug discovery. Ligand-based virtual screening methodologies can take into account shape and electrostatics (like ROCS) and the pharmacophoric features (acceptor, donor, hydrophobic, aromatic, etc.) of its functional groups. Inositol tetraphosphate (IP4) binding to the PH-domain of CNKSR1 provided a good starting point for shape screening. Both structure-based and ligand-based approaches were used to find novel compounds (Table 7) and to refine and improve lead compounds (Tables 8, and 9). SPR interaction analyses for Compounds 1 through 7 were performed with a Biacore 2000, using Biacore2000 Control Software v3.2 and BIAevaluation v4.1 analysis software (Biacore) as described in Mol Cancer Ther 7:2621 (2008). SPR interaction analyses of all other compounds was undertaken using a Biacore T100 with Control and Evaluation software kit.

[4] = system: A549 (KRAS mutant cell line); assay: Proliferation Assay A549; format: cell-based; conditions: Homo sapiens, N = 2 experiments
Description: as §2, §3

[5] = system: H226 (KRAS wildtype cell line); assay: Proliferation Assay H226; format: cell-based; conditions: Homo sapiens, NCI-H226, n = 1
Description: as §2, §3

[6] = Mouse pharmacokinetics (iv); format: in vivo; conditions: for clearance: in vivo
wt-KRAS NSCLC cell lines = assay: Screening against NSCLC cell line panel, wt-KRAS lines; format: cell-based; conditions: Table 6, mean of 3 wt-KRAS lines; read-out: NSCL cell line cytotoxicity IC50 wt-KRAS
Description: as §2, §3

[7] = Pharmacokinetics after oral administration; format: in vivo, mice; conditions: compound 8 administered orally to mice at the same dose (200 mg/kg); 200 mg/kg
Description: In order to understand better the reasons for the antitumor activity of compound #7 pharmacokinetic studies were conducted. […] Following oral administration in vivo plasma concentrations of the parent compound were low, about 3 μg/ml (7 μM) whereas the de-esterified acid form (compound 8) was present at high peak concentrations of around 50 μg/ml (128 μM). When compound 8 was administered orally to mice at the same dose even higher peak concentrations of 90 μg/ml (230 μM) were achieved.

PLE = assay: SPR binding, PLE; conditions: Table 8
Description: as §5, with “SPR interaction analyses of all other compounds was undertaken using a Biacore T100 with Control and Evaluation software kit.” left out

PH-domain of Tiam1 = assay: SPR binding to expressed PH-domain of Tiam1
Description: (§6) In embodiments, the binding of identified compounds to the crystal structures of other PH-domain signaling proteins, AKT, PDPK1, Btk, and Tiam1 can be predicted. In such embodiments, the Kds exceed about 100 μM. In other embodiments, SPR can measure the binding of identified compounds to the expressed PH-domains of AKT, PDPK1 and Tiam1. […] Thus, the identified compounds appear have, at least, about 50 to about 100 fold selectivity for CNKSR1 compared to the other PH-domains studied.
(§7) A commercially available docking package, GOLD (GOLD [3.2], CCDC: Cambridge, UK, 2007) was used to evaluate the docking of compounds 1-7 into the binding pocket, see e.g. Table 5. Other docking was performed using modeling algorithms with state-of-the-art commercial drug discovery software (Schrodinger suite). GLIDE was chosen as the docking algorithm used to select and optimize compounds, providing a GlideScore as a rough estimate of binding affinity that was used to rank and select the best compounds. Additionally, ligand-based approaches provided an alternative to structure based drug discovery. Ligand-based virtual screening methodologies can take into account shape and electrostatics (like ROCS) and the pharmacophoric features (acceptor, donor, hydrophobic, aromatic, etc.) of its functional groups. […]

PH-domain of PDPK1 = biological target: T4, PH-domain of PDPK1 (Homo sapiens, UniProt O15530); assay: SPR binding to expressed PH-domain of PDPK1
T4 construct: made in house
T4 sequence (O15530 459-550 limits assumed): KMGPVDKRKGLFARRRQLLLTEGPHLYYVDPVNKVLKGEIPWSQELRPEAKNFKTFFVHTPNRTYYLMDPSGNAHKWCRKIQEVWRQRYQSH
Description: as §6, §7

PH-domain of AKT = biological target: T5, PH-domain of AKT (Homo sapiens, UniProt P31749); assay: SPR binding to expressed PH-domain of AKT
T5 construct: made in house
Description: as §6, §7

[8] = Table 6, mean of 3 mut-KRAS lines, read-out: NSCL cell line cytotoxicity IC50 mut-KRAS

T3 sequence (P31749 5-108 limits assumed): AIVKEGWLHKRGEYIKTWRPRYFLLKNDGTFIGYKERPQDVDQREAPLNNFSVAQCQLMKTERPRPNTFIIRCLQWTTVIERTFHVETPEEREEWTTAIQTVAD
T5 sequence (P31749 5-108 limits assumed): as above

| SMILES | IC50 [2] [µM] | IC50 [3] [µM] | Kd (CNK1 PH-domain (CNKSR1); Table 6, read-out: CNKS KD) [µM] | Kd (AKT1 PH-domain; Table 6) [µM] | IC50 [4] [µM] | IC50 [1, 8] [µM] | IC50 [5] [µM] | t1/2β [6] [h] | clearance [6] [mL/min/kg] | IC50 (wt-KRAS NSCLC cell lines) [µM] | Kd (PLE) [µM] | Kd (CNK1 PH-domain (CNKSR1); Table 8, read-out: CNK KD) [µM] | Surface Plasmon Resonance CNKSR1 binding (RU max) (CNK1 PH-domain (CNKSR1)) [RU * 100/Da] | Surface Plasmon Resonance CNKSR1 stability (RU max post-injection) (CNK1 PH-domain (CNKSR1)) [RU * 100/Da] | Kd (AKT1 PH-domain; Table 8) [µM] | other results |
| --- | --- | --- | --- | --- | --- | --- | --- | --- | --- | --- | --- | --- | --- | --- | --- | --- |
| CC(=O)Nc1cccc(-n2nnc(SCC(=O)c3cc(-c4ccccc4)no3)n2)c1 [Compound 120] |  |  |  |  |  |  |  |  |  |  |  |  |  |  |  | Kd (PH-domain of CNKSR1): 3.3 ± 1.2 µM; IC50 ([1]; Table 5, read-out: Mean IC50 mut-KRAS): 47 ± 5.2 µM |
| Cc1ccc(-c2csc(Cn3nc(CC4OCCCO4)c4ccccc4c3=O)n2)cc1 [Compound 9] | > 100 | 100 | 0.026 | 66.3 | 42 | 25 | > 100 | 4.33 | 133 | 55 |  |  |  |  |  |  |
| Cc1ccc(-c2csc(Cn3nc(CC(=O)O)c4ccccc4c3=O)n2)cc1 [Compound 8] |  |  | > 100 | 51.6 |  | > 100 |  | 1.2 | 4740 | > 100 |  |  |  |  |  | peak plasma concentration [7]: 90 μg/ml and 230 μM; activity in cells in culture ([1]; FIG. 5): inactive |
| CCOC(=O)/C=C/c1c(O)c(OC)cc(NS(=O)(=O)c2cccs2)c1SC [Compound 103, ethyl (2E)-3-[2-hydroxy-3-methoxy-6-(methylsulfanyl)-5-(thiopliene-2-sulfonamido)phenyl]prop-2-enoate] | > 100 | > 100 |  |  | 75 |  | > 100 |  |  |  | 300 | 0.157 | 2.635 | 3.148 | 330 |  |
| CCOC(=O)Cc1nn(SCC(=O)O)c(=O)c2ccccc12 [#4] |  |  |  |  |  |  |  |  |  |  |  |  |  |  |  | inhibition of mut-KRAS cell growth (in words) ([1]; FIG. 3 and FIG. 5): low micromolar inhibition; SPR binding to PH-domain of Tiam1 (PH-domain of Tiam1): No measurable binding; SPR binding to PH-domain of PDPK1 (PH-domain of PDPK1): No measurable binding; SPR binding to PH-domain of AKT (PH-domain of AKT): No measurable binding |
| CCOC(=O)/C=C/c1cc(NS(=O)(=O)c2cccs2)c2c(c1O)OCO2 [Compound 88, (E)-ethyl 3-(4-hydroxy-7-(thiophene-2-sulfonamido)benzo[d][1,3]dioxol-5-yl)acrylate] | > 100 | > 100 |  |  | > 100 |  | > 100 |  |  |  | 261 | 0.186 | 0.817 | 1.138 | 75.2 |  |
